# Test results published in ChEMBL document CHEMBL3091421, “Discovery of benzo[d]imidazo[5,1-b]thiazole as a new class of phosphodiesterase 10A inhibitors” (Bioorg Med Chem Lett, 2013).
# How the values were obtained:
# Homo sapiens [1] = species on record: Homo sapiens; test: Selectivity ratio of IC50 for PDE5A (unknown origin) to IC50 for human recombinant PDE10A
# Homo sapiens [2] = species on record: Homo sapiens; test: Selectivity ratio of IC50 for PDE11A (unknown origin) to IC50 for human recombinant PDE10A
# [3] = Plasma concentration in Sprague-Dawley rat at 10 mg/kg, po after 30 mins; type: ADME, organism-based; design: dose 10 mg/kg, route oral
# [4] = Cmax in Sprague-Dawley rat at 10 mg/kg, po by LC-MS/MS analysis; type: ADME, organism-based; design: dose 10 mg/kg, route oral; conditions: in vivo
# Rattus norvegicus [5] = test: Antipsychotic activity in ip dosed Sprague-Dawley rat psychosis model assessed as inhibition of MK-801-induced stereotypy administered 5 mins prior to MK-801-challenge measured after 15 mins up to 1 hr relative to vehicle-treated control; type: functional, organism-based
# Homo sapiens [6] = species on record: Homo sapiens; test: Selectivity ratio of IC50 for PDE2A (unknown origin) to IC50 for human recombinant PDE10A
# [7] = Metabolic stability in rat liver microsomes assessed as compound remaining after 60 mins; type: ADME; conditions: read-out: Stability
# [8] = target: High affinity cGMP-specific 3',5'-cyclic phosphodiesterase 9A (Homo sapiens) (UniProt O76083); test: Inhibition of PDE9A2 (unknown origin) using [3H]-cGMP as substrate at 10 uM after 30 mins by radiometric assay
# [9] = target: cGMP-dependent 3',5'-cyclic phosphodiesterase (Homo sapiens) (UniProt O00408); test: Inhibition of PDE2A (unknown origin) using cAMP as substrate at 10 uM after 30 mins by HTRF method
# Sequence of cGMP-dependent 3',5'-cyclic phosphodiesterase (Homo sapiens) (O00408 whole entry): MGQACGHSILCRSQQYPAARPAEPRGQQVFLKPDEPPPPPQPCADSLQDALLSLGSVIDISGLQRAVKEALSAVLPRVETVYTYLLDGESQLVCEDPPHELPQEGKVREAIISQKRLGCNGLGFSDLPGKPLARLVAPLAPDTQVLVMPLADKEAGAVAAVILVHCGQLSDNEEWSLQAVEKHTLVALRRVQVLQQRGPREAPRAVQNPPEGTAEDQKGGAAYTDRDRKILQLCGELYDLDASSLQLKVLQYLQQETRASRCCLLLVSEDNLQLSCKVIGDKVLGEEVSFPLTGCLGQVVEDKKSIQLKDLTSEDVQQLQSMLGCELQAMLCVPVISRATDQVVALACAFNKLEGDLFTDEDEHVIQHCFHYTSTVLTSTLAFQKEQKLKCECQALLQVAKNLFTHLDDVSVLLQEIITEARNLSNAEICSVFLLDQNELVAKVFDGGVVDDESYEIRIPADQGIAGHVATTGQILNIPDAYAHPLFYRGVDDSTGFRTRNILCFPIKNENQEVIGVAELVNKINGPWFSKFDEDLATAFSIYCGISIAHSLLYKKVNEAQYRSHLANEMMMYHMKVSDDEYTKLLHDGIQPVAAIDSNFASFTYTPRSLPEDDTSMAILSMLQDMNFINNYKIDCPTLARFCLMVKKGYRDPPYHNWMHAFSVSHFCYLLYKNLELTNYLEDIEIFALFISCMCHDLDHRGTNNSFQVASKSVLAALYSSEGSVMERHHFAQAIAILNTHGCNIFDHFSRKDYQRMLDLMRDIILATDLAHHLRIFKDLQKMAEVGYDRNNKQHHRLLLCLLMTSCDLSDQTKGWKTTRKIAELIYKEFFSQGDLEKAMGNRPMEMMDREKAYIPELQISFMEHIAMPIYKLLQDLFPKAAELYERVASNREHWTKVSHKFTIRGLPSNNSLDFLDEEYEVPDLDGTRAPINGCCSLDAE
# Rattus norvegicus [10] = test: Antipsychotic activity in Sprague-Dawley rat psychosis model assessed as inhibition of MK-801-induced stereotypy at 6 mg/kg, ip administered 5 mins prior to MK-801-challenge measured after 15 mins up to 1 hr relative to vehicle-treated control; type: functional; conditions: route intraperitoneal
# Rattus norvegicus [11] = test: Antipsychotic activity in ip dosed Sprague-Dawley rat conditioned avoidance response model assessed as reduction in avoidance after 15 mins relative to vehicle-treated control; type: functional
# Rattus norvegicus [12] = test: Antipsychotic activity in Sprague-Dawley rat psychosis model assessed as inhibition of MK-801-induced ataxia at 6 mg/kg, ip administered 5 mins prior to MK-801-challenge measured after 15 mins up to 1 hr relative to vehicle-treated control; type: functional; conditions: route intraperitoneal
# Rattus norvegicus [13] = test: Antipsychotic activity in Sprague-Dawley rat assessed as reduction in quipazine-induced head-twitches at 0.3 mg/kg, ip administered 15 mins prior to quipazine-challenge measured immediately relative to vehicle-treated control; type: functional; design: scale not given: the % may be the effect or the level left; conditions: route intraperitoneal
# Rattus norvegicus [14] = test: Antipsychotic activity in Sprague-Dawley rat assessed as reduction in quipazine-induced head-twitches at 1 mg/kg, ip administered 15 mins prior to quipazine-challenge measured immediately relative to vehicle-treated control; type: functional; design: scale not given: the % may be the effect or the level left; conditions: route intraperitoneal
# Rattus norvegicus [15] = test: Antipsychotic activity in Sprague-Dawley rat psychosis model assessed as inhibition of MK-801-induced locomotion at 10 mg/kg, ip administered 5 mins prior to MK-801-challenge measured after 15 mins up to 1 hr relative to vehicle-treated control; type: functional; conditions: route intraperitoneal
# Mus musculus [16] = test: Ratio of ED50 for antipsychotic activity in ip dosed CD-1 mouse assessed as reduction in apomorphine-induced sniffing behavior to ED50 for antipsychotic activity in ip dosed CD-1 mouse assessed as reduction in apomorphine-induced climbing behavior; type: functional
# Rattus norvegicus [17] = test: Antipsychotic activity in Sprague-Dawley rat psychosis model assessed as inhibition of MK-801-induced stereotypy at 10 mg/kg, ip administered 5 mins prior to MK-801-challenge measured after 15 mins up to 1 hr relative to vehicle-treated control; type: functional; conditions: route intraperitoneal
# Rattus norvegicus [18] = test: Antipsychotic activity in Sprague-Dawley rat assessed as reduction in quipazine-induced head-twitches at 6 mg/kg, ip administered 15 mins prior to quipazine-challenge measured immediately relative to vehicle-treated control; type: functional; design: scale not given: the % may be the effect or the level left; conditions: route intraperitoneal
# Rattus norvegicus [19] = test: Antipsychotic activity in Sprague-Dawley rat psychosis model assessed as inhibition of MK-801-induced ataxia at 3 mg/kg, ip administered 5 mins prior to MK-801-challenge measured after 15 mins up to 1 hr relative to vehicle-treated control; type: functional; conditions: route intraperitoneal
# [20] = target: Dual 3',5'-cyclic-AMP and -GMP phosphodiesterase 11A (Homo sapiens) (UniProt Q9HCR9); test: Inhibition of PDE11A (unknown origin) using [3H]-cAMP as substrate at 10 uM after 30 mins by radiometric assay
# Sequence of Dual 3',5'-cyclic-AMP and -GMP phosphodiesterase 11A (Homo sapiens) (Q9HCR9 whole entry, looked up): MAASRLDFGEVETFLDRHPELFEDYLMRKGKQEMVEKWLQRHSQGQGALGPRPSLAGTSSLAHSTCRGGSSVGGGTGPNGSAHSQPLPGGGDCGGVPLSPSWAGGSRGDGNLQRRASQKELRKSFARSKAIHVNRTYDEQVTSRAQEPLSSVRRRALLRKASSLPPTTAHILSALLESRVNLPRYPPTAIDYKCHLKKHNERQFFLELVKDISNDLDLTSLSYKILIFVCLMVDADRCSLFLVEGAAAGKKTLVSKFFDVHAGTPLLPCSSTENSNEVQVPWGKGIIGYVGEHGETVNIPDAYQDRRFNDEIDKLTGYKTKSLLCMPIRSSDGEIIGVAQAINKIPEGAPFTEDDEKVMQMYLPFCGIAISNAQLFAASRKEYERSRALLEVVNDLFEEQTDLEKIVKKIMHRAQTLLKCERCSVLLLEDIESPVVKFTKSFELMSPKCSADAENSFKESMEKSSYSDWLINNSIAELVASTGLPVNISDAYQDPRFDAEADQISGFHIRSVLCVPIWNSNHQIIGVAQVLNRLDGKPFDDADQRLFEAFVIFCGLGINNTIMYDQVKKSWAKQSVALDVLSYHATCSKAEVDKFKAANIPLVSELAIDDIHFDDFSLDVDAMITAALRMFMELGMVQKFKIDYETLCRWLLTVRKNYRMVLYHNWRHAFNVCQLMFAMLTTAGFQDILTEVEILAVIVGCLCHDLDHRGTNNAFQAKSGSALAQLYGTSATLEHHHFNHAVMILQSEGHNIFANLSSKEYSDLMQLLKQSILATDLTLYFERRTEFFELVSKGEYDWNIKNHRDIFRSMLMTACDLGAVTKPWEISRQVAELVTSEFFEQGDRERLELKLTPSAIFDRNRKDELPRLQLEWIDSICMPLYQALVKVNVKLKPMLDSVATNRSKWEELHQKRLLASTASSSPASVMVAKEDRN
# Rattus norvegicus [21] = test: Antipsychotic activity in Sprague-Dawley rat psychosis model assessed as inhibition of MK-801-induced hyperlocomotion at 10 mg/kg, ip administered 5 mins prior to MK-801-challenge measured after 15 mins up to 1 hr; type: functional; conditions: route intraperitoneal
# [22] = target: 3',5'-cyclic-AMP phosphodiesterase 4D (Homo sapiens) (UniProt Q08499); test: Inhibition of PDE4D (unknown origin) using cAMP as substrate at 10 uM after 30 mins
# Sequence of 3',5'-cyclic-AMP phosphodiesterase 4D (Homo sapiens) (Q08499 whole entry): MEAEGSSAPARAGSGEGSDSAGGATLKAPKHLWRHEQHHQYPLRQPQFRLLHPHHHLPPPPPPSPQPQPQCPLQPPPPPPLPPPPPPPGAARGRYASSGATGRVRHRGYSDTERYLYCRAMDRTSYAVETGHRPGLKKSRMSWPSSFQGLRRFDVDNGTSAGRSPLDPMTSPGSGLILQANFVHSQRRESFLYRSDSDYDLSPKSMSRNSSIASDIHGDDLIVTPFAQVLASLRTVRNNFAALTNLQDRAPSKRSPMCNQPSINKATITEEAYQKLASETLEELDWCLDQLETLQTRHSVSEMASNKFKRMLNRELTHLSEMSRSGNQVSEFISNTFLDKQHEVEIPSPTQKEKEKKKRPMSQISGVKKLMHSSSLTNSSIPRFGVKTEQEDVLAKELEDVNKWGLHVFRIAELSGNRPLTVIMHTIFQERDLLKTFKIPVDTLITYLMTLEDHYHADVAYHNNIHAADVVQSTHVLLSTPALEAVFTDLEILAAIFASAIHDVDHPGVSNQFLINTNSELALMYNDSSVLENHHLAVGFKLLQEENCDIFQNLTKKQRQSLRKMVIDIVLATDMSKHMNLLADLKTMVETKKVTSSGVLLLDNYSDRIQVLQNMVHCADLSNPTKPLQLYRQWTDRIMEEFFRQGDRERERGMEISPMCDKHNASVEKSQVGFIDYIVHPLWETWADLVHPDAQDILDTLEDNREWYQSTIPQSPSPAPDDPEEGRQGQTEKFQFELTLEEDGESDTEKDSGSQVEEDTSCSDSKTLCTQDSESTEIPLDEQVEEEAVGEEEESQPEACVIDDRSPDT
# [23] = target: High affinity cAMP-specific and IBMX-insensitive 3',5'-cyclic phosphodiesterase 8A (Homo sapiens) (UniProt O60658); test: Inhibition of PDE8A (unknown origin) using [3H]-cAMP as substrate at 10 uM after 30 mins by radiometric assay
# Sequence of High affinity cAMP-specific and IBMX-insensitive 3',5'-cyclic phosphodiesterase 8A (Homo sapiens) (O60658 whole entry): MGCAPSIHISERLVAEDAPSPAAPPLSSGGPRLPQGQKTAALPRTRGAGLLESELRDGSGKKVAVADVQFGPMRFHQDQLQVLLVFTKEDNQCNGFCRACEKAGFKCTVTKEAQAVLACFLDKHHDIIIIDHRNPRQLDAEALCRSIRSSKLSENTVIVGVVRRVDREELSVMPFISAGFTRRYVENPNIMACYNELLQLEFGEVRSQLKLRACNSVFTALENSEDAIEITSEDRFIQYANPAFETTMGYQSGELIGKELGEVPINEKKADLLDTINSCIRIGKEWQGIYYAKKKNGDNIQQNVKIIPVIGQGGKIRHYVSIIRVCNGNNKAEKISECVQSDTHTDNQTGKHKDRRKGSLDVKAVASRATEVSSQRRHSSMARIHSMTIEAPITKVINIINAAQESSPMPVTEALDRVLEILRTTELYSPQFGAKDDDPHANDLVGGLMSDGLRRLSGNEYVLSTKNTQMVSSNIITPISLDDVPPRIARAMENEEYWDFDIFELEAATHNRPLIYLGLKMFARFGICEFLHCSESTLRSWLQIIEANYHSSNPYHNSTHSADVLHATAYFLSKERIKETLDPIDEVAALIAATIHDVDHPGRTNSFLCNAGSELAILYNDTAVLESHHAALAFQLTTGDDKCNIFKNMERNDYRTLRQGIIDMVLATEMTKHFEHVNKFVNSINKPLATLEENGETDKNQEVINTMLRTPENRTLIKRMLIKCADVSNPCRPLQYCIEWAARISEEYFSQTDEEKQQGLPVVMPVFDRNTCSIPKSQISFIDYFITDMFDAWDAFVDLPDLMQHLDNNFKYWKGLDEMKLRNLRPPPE
# [24] = target: Dual specificity calcium/calmodulin-dependent 3',5'-cyclic nucleotide phosphodiesterase 1A (Homo sapiens) (UniProt P54750); test: Inhibition of PDE1A (unknown origin) at 10 uM
# Sequence of Dual specificity calcium/calmodulin-dependent 3',5'-cyclic nucleotide phosphodiesterase 1A (Homo sapiens) (P54750 whole entry): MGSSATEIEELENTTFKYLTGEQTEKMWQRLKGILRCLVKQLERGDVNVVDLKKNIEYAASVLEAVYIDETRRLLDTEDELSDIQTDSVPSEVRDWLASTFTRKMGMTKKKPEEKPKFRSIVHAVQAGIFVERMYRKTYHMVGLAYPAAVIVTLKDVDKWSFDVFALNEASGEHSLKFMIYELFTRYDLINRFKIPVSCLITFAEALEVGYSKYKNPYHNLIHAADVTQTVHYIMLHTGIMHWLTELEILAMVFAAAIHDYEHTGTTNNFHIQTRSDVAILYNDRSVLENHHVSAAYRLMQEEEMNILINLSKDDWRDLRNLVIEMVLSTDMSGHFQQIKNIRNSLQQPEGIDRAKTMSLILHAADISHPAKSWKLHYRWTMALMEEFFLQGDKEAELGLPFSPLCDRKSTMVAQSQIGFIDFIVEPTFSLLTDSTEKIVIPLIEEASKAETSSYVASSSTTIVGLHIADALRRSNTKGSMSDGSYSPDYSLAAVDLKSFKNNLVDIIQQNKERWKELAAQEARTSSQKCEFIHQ
# Rattus norvegicus [25] = test: Antipsychotic activity in Sprague-Dawley rat psychosis model assessed as inhibition of MK-801-induced hyperlocomotion at 30 mg/kg, po administered 5 mins prior to MK-801-challenge measured after 15 mins up to 1 hr; type: functional
# Rattus norvegicus [26] = test: Antipsychotic activity in Sprague-Dawley rat psychosis model assessed as inhibition of MK-801-induced locomotion at 0.3 mg/kg, ip administered 5 mins prior to MK-801-challenge measured after 15 mins up to 1 hr relative to vehicle-treated control; type: functional; conditions: route intraperitoneal
# Rattus norvegicus [27] = test: Antipsychotic activity in ip dosed Sprague-Dawley rat psychosis model assessed as inhibition of MK-801-induced ataxia administered 5 mins prior to MK-801-challenge measured after 15 mins up to 1 hr relative to vehicle-treated control; type: functional, organism-based
# Homo sapiens [28] = species on record: Homo sapiens; test: Selectivity ratio of IC50 for PDE7A1 (unknown origin) to IC50 for human recombinant PDE10A
# Mus musculus [29] = test: Antipsychotic activity in ip dosed CD-1 mouse assessed as reduction in apomorphine-induced climbing behavior administered 15 mins prior to apomorphine-challenge measured immediately relative to vehicle-treated control; type: functional; conditions: CD-1, ip
# [30] = Drug uptake in Sprague-Dawley rat brain at 10 mg/kg, po after 30 mins; type: ADME, organism-based; design: dose 10 mg/kg, route oral; conditions: read-out: Drug uptake
# Rattus norvegicus [31] = test: Antipsychotic activity in Sprague-Dawley rat conditioned avoidance response model assessed as reduction in avoidance at 3 mg/kg, ip after 15 mins relative to vehicle-treated control; type: functional; design: scale not given: the % may be the effect or the level left; conditions: route intraperitoneal
# [32] = target: High affinity 3',5'-cyclic-AMP phosphodiesterase 7A (Homo sapiens) (UniProt Q13946); test: Inhibition of PDE7A1 (unknown origin) using [3H]-cAMP as substrate at 10 uM after 30 mins by radiometric assay
# Sequence of High affinity 3',5'-cyclic-AMP phosphodiesterase 7A (Homo sapiens) (Q13946 whole entry): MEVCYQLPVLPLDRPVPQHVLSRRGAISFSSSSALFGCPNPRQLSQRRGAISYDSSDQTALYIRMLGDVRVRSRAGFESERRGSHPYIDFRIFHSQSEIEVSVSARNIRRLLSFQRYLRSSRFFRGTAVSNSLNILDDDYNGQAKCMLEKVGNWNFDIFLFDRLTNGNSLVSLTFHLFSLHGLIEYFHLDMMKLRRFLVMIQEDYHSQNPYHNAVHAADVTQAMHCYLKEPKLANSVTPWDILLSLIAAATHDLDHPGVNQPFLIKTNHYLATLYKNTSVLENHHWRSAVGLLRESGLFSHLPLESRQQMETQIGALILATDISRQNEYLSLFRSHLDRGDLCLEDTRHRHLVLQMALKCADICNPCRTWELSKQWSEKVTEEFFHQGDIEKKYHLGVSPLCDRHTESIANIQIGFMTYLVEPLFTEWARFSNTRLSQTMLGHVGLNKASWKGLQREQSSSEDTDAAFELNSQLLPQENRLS
# Homo sapiens [33] = species on record: Homo sapiens; test: Selectivity ratio of IC50 for PDE1A (unknown origin) to IC50 for human recombinant PDE10A
structure (smiles),measurement,setting,value
Cc1nc(C2CCOCC2)n2c1sc1cc(OCc3ccc4ccccc4n3)ccc12,Ratio IC50,Homo sapiens [1],> 500
same,Ratio IC50,Homo sapiens [2],> 500
same,concentration at 0.5 h,[3],370 ng/mL
same,Cmax,[4],720 ng/mL
same,inhibition,Rattus norvegicus [5],Dose-dependent effect
same,Ratio IC50,Homo sapiens [6],> 500
same,remaining at 1 h,[7],65%
same,inhibition,[8],16.5%
same,inhibition,[9],60.8%
same,inhibition in vivo at 6 mg/kg,Rattus norvegicus [10],69%
same,Activity,Rattus norvegicus [11],Dose-dependent effect
same,ED50,Rattus norvegicus [11]; 0.25 h,1.6 mg/kg
same,inhibition in vivo at 6 mg/kg,Rattus norvegicus [12],46%
same,Activity,Rattus norvegicus [13],25%
same,Activity,Rattus norvegicus [14],47%
same,inhibition in vivo at 10 mg/kg,Rattus norvegicus [15],83%
same,Ratio ED50,Mus musculus [16],6.08
same,inhibition in vivo at 10 mg/kg,Rattus norvegicus [17],66%
same,Activity,Rattus norvegicus [18],76%
same,inhibition in vivo at 3 mg/kg,Rattus norvegicus [19],56%
same,inhibition,[20],19.2%
same,inhibition in vivo at 10 mg/kg,Rattus norvegicus [21],92%
same,inhibition,[22],0%
same,inhibition,[23],18.5%
same,inhibition,[24],62.4%
same,inhibition in vivo at 30 mg/kg,Rattus norvegicus [25],75%
same,inhibition in vivo at 0.3 mg/kg,Rattus norvegicus [26],13%
same,inhibition,Rattus norvegicus [27],Dose-dependent effect
same,Ratio IC50,Homo sapiens [28],> 500
same,ED50,Mus musculus [29],2.68 mg/kg
same,concentration at 0.5 h,[30],672 ng/g
same,Activity,Rattus norvegicus [31],67%
same,inhibition,[32],44%
same,Ratio IC50,Homo sapiens [33],> 500
